# Source: patent US20020137929A1, “1 - (3-heterocyclylphenyl) isothiourea, -isourea, -guanidine and -amidine herbicidal agents” (Intellectual Property Department, BASF Aktiengesellschaft, priority 1998, published 2002)
# Assays:
# [1] = tested on: CASOB (Sicklepod); assay: Postemergence herbicidal evaluation; type: in vivo, Cassia obtusifolia; details: postemergence
# How it was run: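 ~2-wk seedlings; postemergence spray, 40 psi; vehicle 1:1 acetone:water + 0.5% Tween 20; rate ≈0.0156–0.500 kg/ha; greenhouse hold; scored 4–5 wk after treatment, 0–9 scale vs control; repeat tests averaged.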
# [2] = tested on: IPOSS (Morningglory Spp.); assay: Postemergence herbicidal evaluation; type: in vivo, Ipomoea Spp.
# Experimental: In the tests, seedling plants are grown in jiffy flats for about two weeks. The test compounds are dispersed in 50/50 acetone/water mixtures containing 0.5% TWEEN®20, a polyoxyethylene sorbitan monolaurate surfactant of Atlas Chemical Industries, in sufficient quantities to provide the equivalent of about 0.0156 kg to 0.500 kg per hectare of active compound when applied to the plants through a spray nozzle operating at 40 psi for a predetermined time. After spraying, the plants are placed on greenhouse benches and are cared for in accordance with conventional greenhouse procedures. From four to five weeks after treatment, the seedling plants are examined and rated according to the rating system set forth below. Where more than one test is involved for a given compound, the data are averaged.
# Plant species employed in these evaluations are reported by header abbreviation, common name and scientific name.
# (§1) Results of herbicide evaluation are expressed on a rating scale (0-9). The scale is based upon a visual observation of plant stand, vigor, malformation, size, chlorosis and overall plant appearance as compared with a control.
# [3] = tested on: IPOSS (Morningglory Spp.); assay: Preemergence herbicidal evaluation; type: in vivo, Ipomoea Spp.; details: rated 4-5 weeks after treatment
# Description: as §1
# The preemergence herbicidal activity of the test compounds of the present invention is exemplified by the following tests in which the seeds of a variety of monocotyledonous and dicotyledonous plants are separately mixed with potting soil and planted on top of approximately one inch of soil in separate pint cups. After planting, the cups are sprayed with the selected aqueous acetone solution containing test compound in sufficient quantity to provide the equivalent of about 0.0156 to 0.500 kg per hectare of test compound per cup. The treated cups are then placed on greenhouse benches, watered and cared for in accordance with conventional greenhouse procedures. From four to five weeks after treatment, the tests are terminated and each cup is examined and rated according to the rating system provided in Example 37.
# The compounds evaluated are reported by compound number given in Example 37.
# [4] = tested on: GLXMAW (Soybean, Williams); assay: Preemergence herbicidal evaluation; type: in vivo, Glycine max, (L.) Merr. cv Williams; details: rated 4-5 weeks after treatment
# How it was run: (§2)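 Rating at 4–5 wk post-spray on a 0–9 visual scale vs control. Application: aqueous acetone, ~0.0156–0.500 kg/ha, to soil surface after seeding, preemergence.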
# [5] = tested on: ORYSAT (Rice, Tebonnet); assay: Preemergence herbicidal evaluation; type: in vivo, Oryza sativa, (L.) Tebonnet; details: rated 4-5 weeks after treatment
# How it was run: as §2
# [6] = tested on: TRZAWR (Wheat, Winter, cv Riband); assay: Preemergence herbicidal evaluation; type: in vivo, Triticum aestivum; details: rated 4-5 weeks after treatment
# How it was run: as §2
# [7] = tested on: SAGPY (Arrowhead (Pygmaea)); assay: Preemergence weed control under flooded paddy conditions; type: in vivo, Sagittaria pygmaea; details: rated 3-4 weeks after treatment
# How it was run: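 Seeds or propagules sown in top 0.5 cm of silt loam soil, flooded 1.5 to 3 cm above surface throughout. Compound in 50/50 v/v aqueous/acetone pipetted into flood water at about 0.0313 to 0.500 kg/ha. Visual 0-9 rating versus control after three to four weeks in greenhouse.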
# [8] = tested on: ORYSAT (Rice, Tebonnet); assay: Rice tolerance to post-transplant applications, flooded paddy conditions (Table III); type: in vivo, Oryza sativa, (L.) Tebonnet; details: post-transplant rice, flooded paddy, rated 3-4 weeks after treatment
# How it was run: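 Two ten-day-old Tebonnet seedlings transplanted into flooded silt loam (water 1.5 to 3 cm above soil); three days later the water surface was treated with compound in aqueous/acetone 50/50 at about 0.0313 to 0.500 kg/ha. Visual 0-9 injury rating versus control after three to four weeks in greenhouse.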
# [9] = tested on: MOOVA (Monochoria); assay: Postemergence weed control under flooded paddy conditions; type: in vivo, Monochoria vaginalis; details: postemergence weeds, 3-4 weeks after treatment
# How it was run: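 With weeds 3 to 5 cm tall and rice at the 1.5 to 2.5 leaf stage, containers were flooded and water held 1.5 to 3 cm above soil. Compounds in 50/50 v/v aqueous/acetone went into the flood water at about 0.0313 to 0.500 kg/ha a.i. Effects were visually rated 0–9 against controls after three to four weeks in the greenhouse.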
# [10] = tested on: ORYSAT (Rice, Tebonnet); assay: Rice tolerance to post-transplant applications, flooded paddy conditions (Table IV); type: in vivo, Oryza sativa, (L.) Tebonnet; details: flooded paddy, post-transplant rice, 3-4 weeks after treatment
# How it was run: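 Flood-water application, about 0.0313–0.500 kg/ha a.i. in aqueous/acetone 50/50 v/v; water depth 1.5–3 cm throughout. Weeds 3–5 cm, rice 1.5–2.5 leaf. Greenhouse; 0–9 visual rating vs control at 3–4 wk.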
structure (smiles),measurement,setting,value
"O=C1CSC(=Nc2cc(N3C(=O)C4=C(CCCC4)C3=O)c(F)cc2Cl)N1c1ccccc1 [Compound 3, N-{4-chloro-2-fluoro-5-[(4-oxo-3-phenyl-2-thiazolidinylidene)amino]phenyl}-1-cyclohexene-1,2-dicarboximide]",CASOB herbicidal rating,[1]; rate 0.0157 kg/ha,0.0
same,CASOB herbicidal rating,[1]; rate 0.0313 kg/ha,0.0
same,CASOB herbicidal rating,[1]; rate 0.0625 kg/ha,0.0
same,CASOB herbicidal rating,[1]; rate 0.1250 kg/ha,0.0
same,CASOB herbicidal rating,[1]; rate 0.2500 kg/ha,6.0
same,CASOB herbicidal rating,[1]; rate 0.5000 kg/ha,4.0
same,IPOSS herbicidal rating,[2]; rate 0.0313 kg/ha,2.0
same,IPOSS herbicidal rating,[2]; rate 0.0625 kg/ha,4.0
same,IPOSS herbicidal rating,[2]; rate 0.1250 kg/ha,9.0
same,IPOSS herbicidal rating,[2]; rate 0.2500 kg/ha,8.0
same,IPOSS herbicidal rating,[2]; rate 0.5000 kg/ha,9.0
same,IPOSS preemergence herbicidal rating,[3]; rate 0.0313 kg/ha,0.0
same,IPOSS preemergence herbicidal rating,[3]; rate 0.0625 kg/ha,0.0
same,IPOSS preemergence herbicidal rating,[3]; rate 0.1250 kg/ha,0.0
same,IPOSS preemergence herbicidal rating,[3]; rate 0.2500 kg/ha,2.0
same,IPOSS preemergence herbicidal rating,[3]; rate 0.5000 kg/ha,4.0
same,GLXMAW preemergence herbicidal rating,[4]; rate 0.0313 kg/ha,0.0
same,GLXMAW preemergence herbicidal rating,[4]; rate 0.0625 kg/ha,0.0
same,GLXMAW preemergence herbicidal rating,[4]; rate 0.1250 kg/ha,0.0
same,GLXMAW preemergence herbicidal rating,[4]; rate 0.2500 kg/ha,0.0
same,GLXMAW preemergence herbicidal rating,[4]; rate 0.5000 kg/ha,2.0
same,ORYSAT preemergence herbicidal rating,[5]; rate 0.0313 kg/ha,0.0
same,ORYSAT preemergence herbicidal rating,[5]; rate 0.0625 kg/ha,0.0
same,ORYSAT preemergence herbicidal rating,[5]; rate 0.1250 kg/ha,0.0
same,ORYSAT preemergence herbicidal rating,[5]; rate 0.2500 kg/ha,0.0
same,ORYSAT preemergence herbicidal rating,[5]; rate 0.5000 kg/ha,1.0
same,TRZAWR preemergence herbicidal rating,[6]; rate 0.0313 kg/ha,0.0
same,TRZAWR preemergence herbicidal rating,[6]; rate 0.0625 kg/ha,0.0
same,TRZAWR preemergence herbicidal rating,[6]; rate 0.1250 kg/ha,0.0
same,TRZAWR preemergence herbicidal rating,[6]; rate 0.2500 kg/ha,2.0
same,TRZAWR preemergence herbicidal rating,[6]; rate 0.5000 kg/ha,2.0
same,Herbicidal rating SAGPY,[7]; 0.0625 kg/ha,0.0
same,Herbicidal rating SAGPY,[7]; 0.1250 kg/ha,0.0
same,Herbicidal rating SAGPY,[7]; 0.2500 kg/ha,0.0
same,Herbicidal rating SAGPY,[7]; 0.5000 kg/ha,0.0
same,Herbicidal rating ORYSAT (rice tolerance),[8]; 0.0625 kg/ha,0.0
same,Herbicidal rating ORYSAT (rice tolerance),[8]; 0.1250 kg/ha,2.0
same,Herbicidal rating ORYSAT (rice tolerance),[8]; 0.2500 kg/ha,2.0
same,Herbicidal rating ORYSAT (rice tolerance),[8]; 0.5000 kg/ha,3.0
same,Herbicidal rating MOOVA,[9]; rate 0.0625 kg/ha,1.0
same,Herbicidal rating MOOVA,[9]; rate 0.1250 kg/ha,4.5
same,Herbicidal rating MOOVA,[9]; rate 0.2500 kg/ha,4.5
same,Herbicidal rating MOOVA,[9]; rate 0.5000 kg/ha,5.5
same,Herbicidal rating ORYSAT (rice tolerance),[10]; rate 0.0625 kg/ha,0.0
same,Herbicidal rating ORYSAT (rice tolerance),[10]; rate 0.1250 kg/ha,1.0
same,Herbicidal rating ORYSAT (rice tolerance),[10]; rate 0.2500 kg/ha,1.0
same,Herbicidal rating ORYSAT (rice tolerance),[10]; rate 0.5000 kg/ha,2.0
